Columns and labels:
Type in all cases: binding
Conditions in all cases: Compound Concentration 10 µM
panel of 442 kinases [1] = target: T1, panel of 442 kinases (Homo sapiens, UniProt P42336, E542K)
T1 construct: purchased KINOMEscan
Description: (§1) We assessed the selectivity of members of this scaffold using the KINOMEscan methodology across a near comprehensive panel of 442 kinases [[18,27]].

panel of 442 kinases [2] = target: T2, panel of 442 kinases (Homo sapiens, UniProt Q04759)
T2 construct: purchased KINOMEscan
Description: as §1

panel of 442 kinases [3] = target: T3, panel of 442 kinases (Homo sapiens, UniProt Q9UEE5)
T3 construct: purchased KINOMEscan
T3 sequence (Q9UEE5 1-414): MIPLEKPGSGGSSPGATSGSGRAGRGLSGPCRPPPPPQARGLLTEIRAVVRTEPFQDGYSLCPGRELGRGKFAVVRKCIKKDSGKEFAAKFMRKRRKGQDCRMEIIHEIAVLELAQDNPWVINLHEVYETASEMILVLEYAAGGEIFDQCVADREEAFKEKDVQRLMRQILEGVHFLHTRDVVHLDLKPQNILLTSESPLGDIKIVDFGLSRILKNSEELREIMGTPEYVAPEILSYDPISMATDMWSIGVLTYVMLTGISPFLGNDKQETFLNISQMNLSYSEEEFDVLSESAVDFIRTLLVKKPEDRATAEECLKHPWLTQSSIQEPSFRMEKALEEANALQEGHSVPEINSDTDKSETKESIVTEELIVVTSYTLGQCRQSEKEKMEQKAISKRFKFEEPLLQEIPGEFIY
Description: as §1

T2 sequence (Q04759 whole entry): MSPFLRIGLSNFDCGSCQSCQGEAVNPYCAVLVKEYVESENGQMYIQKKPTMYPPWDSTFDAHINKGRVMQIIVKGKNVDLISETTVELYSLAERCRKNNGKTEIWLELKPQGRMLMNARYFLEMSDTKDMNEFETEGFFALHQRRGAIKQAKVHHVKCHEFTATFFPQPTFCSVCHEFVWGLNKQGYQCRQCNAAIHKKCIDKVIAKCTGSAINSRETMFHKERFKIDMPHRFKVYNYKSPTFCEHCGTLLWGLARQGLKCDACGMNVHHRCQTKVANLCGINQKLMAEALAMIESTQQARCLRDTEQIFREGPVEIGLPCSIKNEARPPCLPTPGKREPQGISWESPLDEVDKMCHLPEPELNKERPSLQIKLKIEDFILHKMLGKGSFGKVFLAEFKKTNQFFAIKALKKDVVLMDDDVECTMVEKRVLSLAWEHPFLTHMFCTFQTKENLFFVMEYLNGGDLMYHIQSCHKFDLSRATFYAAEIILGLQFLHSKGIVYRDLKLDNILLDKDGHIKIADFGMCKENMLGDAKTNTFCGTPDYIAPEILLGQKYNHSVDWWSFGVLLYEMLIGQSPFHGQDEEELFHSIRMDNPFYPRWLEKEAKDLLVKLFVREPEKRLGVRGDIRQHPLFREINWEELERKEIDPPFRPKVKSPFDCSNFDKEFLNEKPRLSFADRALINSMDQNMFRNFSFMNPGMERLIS
T1 sequence (P42336 whole entry E542K): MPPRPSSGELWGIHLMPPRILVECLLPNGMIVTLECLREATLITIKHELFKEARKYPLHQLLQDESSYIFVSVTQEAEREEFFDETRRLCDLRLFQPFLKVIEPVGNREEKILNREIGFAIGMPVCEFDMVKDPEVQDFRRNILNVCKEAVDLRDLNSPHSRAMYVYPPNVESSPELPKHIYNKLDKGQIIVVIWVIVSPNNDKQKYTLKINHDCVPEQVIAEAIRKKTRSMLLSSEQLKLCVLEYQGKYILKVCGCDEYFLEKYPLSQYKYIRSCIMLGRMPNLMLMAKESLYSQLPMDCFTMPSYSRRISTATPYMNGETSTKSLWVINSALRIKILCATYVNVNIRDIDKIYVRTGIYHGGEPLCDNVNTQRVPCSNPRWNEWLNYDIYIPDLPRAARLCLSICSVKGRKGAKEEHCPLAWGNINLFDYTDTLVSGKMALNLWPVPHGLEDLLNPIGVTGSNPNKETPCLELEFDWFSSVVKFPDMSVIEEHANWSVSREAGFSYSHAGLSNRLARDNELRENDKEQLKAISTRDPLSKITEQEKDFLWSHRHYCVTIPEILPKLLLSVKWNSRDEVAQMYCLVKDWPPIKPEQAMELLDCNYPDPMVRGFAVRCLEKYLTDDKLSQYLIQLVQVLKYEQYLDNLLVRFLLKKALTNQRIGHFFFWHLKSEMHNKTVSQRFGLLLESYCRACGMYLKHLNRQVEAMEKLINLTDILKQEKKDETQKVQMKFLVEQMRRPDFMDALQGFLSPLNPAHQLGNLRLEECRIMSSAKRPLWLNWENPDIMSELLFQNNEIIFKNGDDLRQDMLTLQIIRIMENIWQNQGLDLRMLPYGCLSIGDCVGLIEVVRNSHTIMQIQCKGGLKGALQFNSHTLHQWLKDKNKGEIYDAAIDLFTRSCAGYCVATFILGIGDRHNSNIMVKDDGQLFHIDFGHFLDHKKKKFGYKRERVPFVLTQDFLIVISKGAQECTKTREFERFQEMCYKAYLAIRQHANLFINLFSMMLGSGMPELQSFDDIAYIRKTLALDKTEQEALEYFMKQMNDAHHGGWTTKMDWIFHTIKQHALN

Structure (SMILES): CCOc1cc(C(=O)N2CCC(N3CCN(C)CC3)CC2)ccc1Nc1ncc2c(n1)N(C1CCCC1)c1ccccc1C(=O)N2C [Compound 26]
- KINOMEscan: PIK3CA(E542K) (panel of 442 kinases [1]): 100
- KINOMEscan: PRKCQ (panel of 442 kinases [2]): 100
- KINOMEscan: DRAK1 (panel of 442 kinases [3]): 100

Structure (SMILES): COc1cc(C(=O)N2CCC(N3CCN(C)CC3)CC2)ccc1Nc1ncc2c(n1)N(C1CCCC1)c1ccccc1C(=O)N2C [Compound 25, 11-cyclopentyl-2-((2-methoxy-4-(4-(4-methylpiperazin-1-yl)piperidine-1-carbonyl)phenyl)amino)-5-methyl-5H-benzo[e]pyrimido[5,4-b][1,4]diazepin-6(11H)-one]
- KINOMEscan: PIK3CA(E542K) (panel of 442 kinases [1]): 98
- KINOMEscan: PRKCQ (panel of 442 kinases [2]): 100
- KINOMEscan: DRAK1 (panel of 442 kinases [3]): 100

Structure (SMILES): COc1cc(C(=O)N2CCC(N3CCN(C)CC3)CC2)ccc1Nc1ncc2c(n1)N(C)c1ccccc1C(=O)N2C [15 (LRRK2-IN-1)]
- KINOMEscan: PIK3CA(E542K) (panel of 442 kinases [1]): 77
- KINOMEscan: PRKCQ (panel of 442 kinases [2]): 100
- KINOMEscan: DRAK1 (panel of 442 kinases [3]): 100
